Some test systems named below: NCI-H460; RXF 393; SK-MEL-5; MDA-N; HCT-116; NCI-H226; SF-539; COLO 205; SK-MEL-28; RPMI-8226; UACC-257; MOLT-4; SF-268; OVCAR-8; HOP-62; SN12C; OVCAR-3; CCRF-CEM; OVCAR-5; NCI-H23.
What all share (experiment): growth of human tumour cells (NCI), 48 h

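Compound exposure: 48 hours, 5 concentrations, 96-well plates. At the GI50, growth is halved.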 Activity calls are given as the source filed them. Cut-off read from the data, not from the text of the source: active = GI50 up to about 1.1 µM and inactive = higher.

Five compounds from ChEMBL document CHEMBL1201862, “PubChem BioAssay data set” (2004) can be followed below.

With `CC(=O)NCCc1c[nH]c2ccc(Cl)cc12`, the GI50 in the assay with NCI-H460, in the assay on RXF 393, in the assay on SK-MEL-5, in the assay on MDA-N, in the assay with HCT-116 and in the assay with NCI-H226 was > 100 µM (inactive) each time. In addition, the GI50 in the assay on SF-539, in the assay on COLO 205, in the assay on SK-MEL-28, in the assay with RPMI-8226, in the assay on UACC-257 and in the assay on MOLT-4 was > 100 µM (inactive) throughout. Further, the GI50 with SF-268 is > 100 µM (inactive); with OVCAR-8 it was > 100 µM (inactive); in the assay with HOP-62, > 100 µM (inactive); with SN12C, > 100 µM (inactive); in the assay on OVCAR-3, > 100 µM (inactive); in the assay on CCRF-CEM it was 60.4 µM (inactive). The GI50 with OVCAR-5 and in the assay with NCI-H23 was > 100 µM (inactive) each time.
Regarding `Cc1cccc(NC(=O)O/N=C(\Cl)C(C)C)c1`, the GI50 was 16.8 µM (inactive) with NCI-H460; 13.9 µM (inactive) with RXF 393; 16.4 µM (inactive) in the assay on SK-MEL-5; 10.5 µM (inactive) with MDA-N; 3.37 µM (inactive) in the assay on HCT-116; 18.6 µM (inactive) in the assay with NCI-H226. The GI50 is 6.21 µM (inactive) with SF-539; 2.01 µM (inactive) in the assay with COLO 205; 7.19 µM (inactive) with SK-MEL-28; 2.96 µM (inactive) in the assay with RPMI-8226; 17.3 µM (inactive) with UACC-257; 2.15 µM (inactive) in the assay with MOLT-4. Also, the GI50 was 20 µM (inactive) in the assay on SF-268; 19.4 µM (inactive) in the assay with OVCAR-8; 19 µM (inactive) in the assay with HOP-62; 3.37 µM (inactive) with SN12C; 6.15 µM (inactive) in the assay on OVCAR-3; 0.847 µM (active) with CCRF-CEM. Also, the results for the GI50 in the assay on OVCAR-5 and in the assay with NCI-H23 were 19.4 µM (inactive) and 15.1 µM (inactive), respectively.
Turning to `CC(C)(C)c1c(C(C)(C)C)c(=O)c1=O`, the GI50 in the assay with NCI-H460, in the assay with RXF 393, with SK-MEL-5, with MDA-N, in the assay on HCT-116 and in the assay with NCI-H226 was > 100 µM (inactive) in each case. For the same compound, the GI50 with SF-539, in the assay with COLO 205, in the assay on SK-MEL-28, in the assay on RPMI-8226, with UACC-257 and with MOLT-4 was > 100 µM (inactive) each time. Further, the GI50 in the assay on SF-268, with OVCAR-8, with HOP-62, in the assay with SN12C, in the assay on OVCAR-3 and in the assay with CCRF-CEM was > 100 µM (inactive) each time. In addition, the GI50 in the assay on OVCAR-5 and in the assay on NCI-H23 was > 100 µM (inactive) in each case.
For `CC(=O)/N=S(/NC(=O)c1ccc(C)cc1)C(Cl)(Cl)Cl` (stereo not given), the GI50 is 38.5 µM (inactive) in the assay with NCI-H460; 44.6 µM (inactive) with RXF 393; 33.3 µM (inactive) with SK-MEL-5; 55.6 µM (inactive) with MDA-N; 31 µM (inactive) with HCT-116; > 100 µM (inactive) in the assay on NCI-H226. Also, the GI50 was 77.1 µM (inactive) in the assay with SF-539; 19.8 µM (inactive) in the assay with COLO 205; 46.7 µM (inactive) with SK-MEL-28; 74.3 µM (inactive) with RPMI-8226; 44 µM (inactive) in the assay with UACC-257; 25.1 µM (inactive) with MOLT-4. Besides, the GI50 is 97.1 µM (inactive) with SF-268; 15.6 µM (inactive) with OVCAR-8; 56.4 µM (inactive) in the assay on HOP-62; 37.9 µM (inactive) with SN12C; 20.9 µM (inactive) with OVCAR-3; 18.6 µM (inactive) in the assay with CCRF-CEM. Moreover, the GI50 was 36.2 µM (inactive) in the assay on OVCAR-5 and 24.1 µM (inactive) in the assay on NCI-H23.
Turning to `COc1ccc(OC)c(C(=O)/C=C/c2cc(O)c(O)cc2F)c1`, the GI50 was 2.14 µM (inactive) in the assay with NCI-H460; 1.37 µM (inactive) in the assay on RXF 393; 0.558 µM (active) in the assay with SK-MEL-5; 0.181 µM (active) with MDA-N; 0.47 µM (active) in the assay with HCT-116; 5.24 µM (inactive) in the assay with NCI-H226. Further, the GI50 is 0.258 µM (active) in the assay on SF-539; 15.5 µM (inactive) in the assay on COLO 205; 1.85 µM (inactive) with SK-MEL-28; 0.678 µM (active) with RPMI-8226; 3.1 µM (inactive) with UACC-257; 0.321 µM (active) in the assay with MOLT-4. Further, the GI50 was 0.643 µM (active) in the assay on SF-268; 2.14 µM (inactive) in the assay with OVCAR-8; 1.05 µM (active) in the assay with HOP-62; 0.417 µM (active) with SN12C; 0.18 µM (active) in the assay with OVCAR-3; 0.41 µM (active) with CCRF-CEM. The GI50 with OVCAR-5 is 13 µM (inactive); in the assay on NCI-H23, 0.535 µM (active).
